Laboratory results taken from patent publication US20070128217A1 (priority 2003, published 2007).

How the values were obtained:
[1] = system: rabbit serum obtained by immunizing a rabbit with the SARS-CoV strain Frankfurt 1; type: binding; set-up: Binding of a rabbit serum to linear peptides / Binding of a rabbit serum to looped peptides / Rabbit serum linear peptides / Rabbit serum looped peptides / Binding of a rabbit serum to linear peptides of protein N of SARS-CoV Urbani (Rabbit serum linear peptides) / Binding of a rabbit serum to looped/cyclic peptides of protein N of SARS-CoV Urbani (Rabbit serum looped peptides): unit not given here
[2] = system: antibodies in sera from SARS patients (sera 1a, 1b, 2, 6, 37, 62, London, SARS-yellow, SARS-green); type: binding, human
[3] = system: control sera (pooled serum of ten healthy LUMC hospital workers; commercial negative donor pooled serum from the Dutch bloodbank); type: binding, human

Sequence | Binding of a rabbit serum to linear peptides [1] | Binding of a rabbit serum to looped peptides [1] | Binding of serum 1a to linear peptides of protein E of SARS-CoV Urbani [2] | Binding of serum 1a to looped/cyclic peptides of protein E of SARS-CoV Urbani [2] | Binding of serum 1b to linear peptides of protein E of SARS-CoV Urbani [2] | Binding of serum 1b to looped/cyclic peptides of protein E of SARS-CoV Urbani [2] | Binding of serum 2 to linear peptides of protein E of SARS-CoV Urbani [2] | Binding of serum 2 to looped/cyclic peptides of protein E of SARS-CoV Urbani [2] | Binding of serum 6 to linear peptides of protein E of SARS-CoV Urbani [2] | Binding of serum 6 to looped/cyclic peptides of protein E of SARS-CoV Urbani [2] | Binding of serum 37 to linear peptides of protein E of SARS-CoV Urbani [2] | Binding of serum 37 to looped/cyclic peptides of protein E of SARS-CoV Urbani [2] | Binding of serum 62 to linear peptides of protein E of SARS-CoV Urbani [2] | Binding of serum 62 to looped/cyclic peptides of protein E of SARS-CoV Urbani [2] | Binding of serum London to linear peptides of protein E of SARS-CoV Urbani [2] | Binding of serum London to looped/cyclic peptides of protein E of SARS-CoV Urbani [2] | Binding of serum SARS-green to linear peptides of protein E of SARS-CoV Urbani [2] | Binding of serum SARS-green to looped/cyclic peptides of protein E of SARS-CoV Urbani [2] | Binding of serum SARS-yellow to linear peptides of protein E of SARS-CoV Urbani [2] | Binding of serum SARS-yellow to looped/cyclic peptides of protein E of SARS-CoV Urbani [2] | also measured
VFLLVTLAILTALRL | 0.4 | 0.3 | 0.7 | 0.4 | 0.4 | 0.2 | 0.4 | 0.4 | 0.5 | 0.2 | 0.6 | 0.4 | 0.6 | 0.5 | 0.5 | 0.3 | 0.4 | 0.2 | 0.0 | 0.5 | Binding of Control Serum Blood-Bank to Looped peptides [3]: 0.4; Binding of Control serum Blood-bank to linear peptides [3]: 0.5; Binding of Control serum LUMC to linear peptides [3]: 0.3; Binding of Control serum LUMC to looped peptides [3]: 0.5
VLLFLAFVVFLLVTL | 0.5 | 0.5 | 0.8 | 0.6 | 0.9 | 0.5 | 0.8 | 0.5 | 0.9 | 0.4 | 0.8 | 0.6 | 0.8 | 0.8 | 0.6 | 0.4 | 0.5 | 0.3 | 0.3 | 0.6 | Binding of Control Serum Blood-Bank to Looped peptides [3]: 0.5; Binding of Control serum Blood-bank to linear peptides [3]: 0.8; Binding of Control serum LUMC to linear peptides [3]: 0.5; Binding of Control serum LUMC to looped peptides [3]: 0.7
VSEETGTLIVNSVLL | 0.4 | 0.1 | 0.8 | 0.7 | 0.5 | 0.6 | 0.3 | 0.6 | 0.4 | 0.5 | 0.5 | 0.7 | 0.7 | 0.9 | 0.5 | 0.5 | 0.4 | 0.6 | 0.1 | 0.7 | Binding of Control Serum Blood-Bank to Looped peptides [3]: 0.9; Binding of Control serum Blood-bank to linear peptides [3]: 0.8; Binding of Control serum LUMC to linear peptides [3]: 0.5; Binding of Control serum LUMC to looped peptides [3]: 0.7
